In patent US6737383B1, “Herbicidal oxadiazolidines” (priority 1999, dated 2004):

Legend:
bedstraw = assay: Test B pre/postemergence bedstraw; assay type: in vivo, Galium aparine
Procedure, shortened: (§1)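 Herbicidal effect was estimated by eye on a ten-point control scale after plants spent twelve to sixteen days in a greenhouse following soil or foliar treatment. Foliar sprays targeted plants at one to four leaves; all doses were formulated in a non-phytotoxic solvent with surfactant.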

blackgrass = assay: Test B pre/postemergence blackgrass; assay type: in vivo, Alopecurus myosuroides
Procedure, shortened: as §1

surinam grass = assay: Test B pre/postemergence surinam grass; assay type: in vivo, Brachiaria decumbens
Procedure, shortened: as §1

cocklebur = assay: Test B pre/postemergence cocklebur; assay type: in vivo, Xanthium strumarium
Procedure, shortened: as §1

corn = assay: Test B pre/postemergence corn; assay type: in vivo, Zea mays
Procedure, shortened: as §1

crabgrass = assay: Test B pre/postemergence crabgrass; assay type: in vivo, Digitaria sanguinalis
Procedure, shortened: as §1

giant foxtail = assay: Test B pre/postemergence giant foxtail; assay type: in vivo, Setaria faberii
Procedure, shortened: as §1

morningglory = assay: Test B pre/postemergence morningglory; assay type: in vivo, Ipomoea hederacea
Procedure, shortened: as §1

pigweed = assay: Test B pre/postemergence pigweed; assay type: in vivo, Amaranthus retroflexus
Procedure, shortened: as §1

rape = assay: Test B pre/postemergence rape; assay type: in vivo, Brassica napus
Procedure, shortened: as §1

soybean = assay: Test B pre/postemergence soybean; assay type: in vivo, Glycine max
Procedure, shortened: as §1

sugar beet = assay: Test B pre/postemergence sugar beet; assay type: in vivo, Beta vulgaris
Procedure, shortened: as §1

velvetleaf = assay: Test B pre/postemergence velvetleaf; assay type: in vivo, Abutilon theophrasti
Procedure, shortened: as §1

wheat = assay: Test B pre/postemergence wheat; assay type: in vivo, Triticum aestivum
Procedure, shortened: as §1

wild oat = assay: Test B pre/postemergence wild oat; assay type: in vivo, Avena fatua
Procedure, shortened: as §1

purple nutsedge = assay: Test B pre/postemergence purple nutsedge; assay type: in vivo, Cyperus rotundus
Procedure, shortened: as §1

[1] = Postemergence, Rate 62 g/ha, scale of 0 to 10, 0 is no effect, 10 is complete control
[2] = Postemergence, Rate 125 g/ha, scale 0 to 10, 0 is no effect, 10 is complete control
[3] = Postemergence, Rate 500 g/ha, scale 0 to 10, 0 is no effect, 10 is complete control
[4] = Preemergence, Rate 125 g/ha, scale 0 to 10, 0 is no effect, 10 is complete control
[5] = Preemergence, Rate 500 g/ha, scale of 0 to 10 where 0 is no effect and 10 is complete control
[6] = Rate 250 g/ha, Postemergence, scale of 0 to 10 where 0 is no effect and 10 is complete control
[7] = Preemergence, Rate 62 g/ha, scale 0 to 10 (0 no effect, 10 complete control)

CC(C)N(C(=O)n1oc(=O)n(CCCCF)c1=O)c1ccc(Cl)cc1 [Compound 551]
1: Morningglory plant response rating (morningglory; [1])
2: Plant response rating, B. signalgrass (surinam grass; [6]) | Morningglory plant response rating (morningglory; [2]) | Soybean plant response rating (soybean; [1]) | Sugarbeets plant response rating (sugar beet; [1]) | Sugarbeets plant response rating (sugar beet; [7]) | Velvetleaf plant response rating (0 to 10 scale) (velvetleaf; Preemergence, Rate 250 g/ha)
6: Crabgrass plant response rating (crabgrass; [2]) | Sugarbeets plant response rating (sugar beet; [4]) | Wheat plant response rating (wheat; [5])
3: Blackgrass plant response rating (blackgrass; [7]) | Plant response rating, Morningglory (morningglory; [3]) | Plant response rating, Redroot pigweed (pigweed; [6]) | Rape plant response rating (rape; [1]) | Rape plant response rating (rape; [4]) | Rape plant response rating (0 to 10 scale) (rape; Preemergence, Rate 250 g/ha) | Plant response rating, Soybean (soybean; [3]) | Plant response rating, Soybean (soybean; [6]) | Plant response rating, Velvetleaf (velvetleaf; [3]) | Plant response rating, Velvetleaf (velvetleaf; [6]) | Plant response rating, Wheat (wheat; [3]) | Wheat plant response rating (0 to 10 scale) (wheat; Preemergence, Rate 250 g/ha) | Wild oats plant response rating (wild oat; [4]) | Wild oats plant response rating (0 to 10 scale) (wild oat; Preemergence, Rate 250 g/ha)
8: Bedstraw plant response rating (bedstraw; [4]) | Plant response rating, Crabgrass (crabgrass; [6]) | Redroot pigweed plant response rating (pigweed; [7]) | Plant response rating, Sugarbeets (sugar beet; [3])
4: Plant response rating, Bedstraw (bedstraw; [6]) | Blackgrass plant response rating (blackgrass; [1]) | Plant response rating, B. signalgrass (surinam grass; [3]) | B. signalgrass plant response rating (surinam grass; [7]) | Plant response rating, Morningglory (morningglory; [6]) | Velvetleaf plant response rating (velvetleaf; [5])
10: Bedstraw plant response rating (bedstraw; [5]) | Crabgrass plant response rating (0 to 10 scale) (crabgrass; Preemergence, Rate 250 g/ha) | Crabgrass plant response rating (crabgrass; [5]) | Giant foxtail plant response rating (giant foxtail; [7]) | Giant foxtail plant response rating (giant foxtail; [4]) | Giant foxtail plant response rating (0 to 10 scale) (giant foxtail; Preemergence, Rate 250 g/ha) | Giant foxtail plant response rating (giant foxtail; [5]) | Redroot pigweed plant response rating (0 to 10 scale) (pigweed; Preemergence, Rate 250 g/ha) | Redroot pigweed plant response rating (pigweed; [5])
5: Corn plant response rating (corn; [5]) | Plant response rating, Giant foxtail (giant foxtail; [3]) | Plant response rating, Giant foxtail (giant foxtail; [6]) | Plant response rating, Rape (rape; [3]) | Plant response rating, Sugarbeets (sugar beet; [6]) | Plant response rating, Wild oats (wild oat; [3])
0: Bedstraw plant response rating (bedstraw; [1]) | Bedstraw plant response rating (bedstraw; [2]) | B. signalgrass plant response rating (surinam grass; [1]) | B. signalgrass plant response rating (surinam grass; [2]) | Cocklebur plant response rating (cocklebur; [1]) | Cocklebur plant response rating (cocklebur; [2]) | Plant response rating, Cocklebur (cocklebur; [3]) | Cocklebur plant response rating (cocklebur; [7]) | Cocklebur plant response rating (cocklebur; [4]) | Cocklebur plant response rating (0 to 10 scale) (cocklebur; Preemergence, Rate 250 g/ha) | Cocklebur plant response rating (cocklebur; [5]) | Plant response rating, Cocklebur (cocklebur; [6]) | Corn plant response rating (corn; [1]) | Corn plant response rating (corn; [2]) | Plant response rating, Corn (corn; [3]) | Corn plant response rating (corn; [7]) | Corn plant response rating (corn; [4]) | Corn plant response rating (0 to 10 scale) (corn; Preemergence, Rate 250 g/ha) | Plant response rating, Corn (corn; [6]) | Crabgrass plant response rating (crabgrass; [1]) | Giant foxtail plant response rating (giant foxtail; [1]) | Morningglory plant response rating (morningglory; [7]) | Morningglory plant response rating (morningglory; [4]) | Morningglory plant response rating (0 to 10 scale) (morningglory; Preemergence, Rate 250 g/ha) | Morningglory plant response rating (morningglory; [5]) | Redroot pigweed plant response rating (pigweed; [1]) | Rape plant response rating (rape; [7]) | Soybean plant response rating (soybean; [7]) | Soybean plant response rating (soybean; [4]) | Soybean plant response rating (0 to 10 scale) (soybean; Preemergence, Rate 250 g/ha) | Soybean plant response rating (soybean; [5]) | Velvetleaf plant response rating (velvetleaf; [1]) | Velvetleaf plant response rating (velvetleaf; [7]) | Velvetleaf plant response rating (velvetleaf; [4]) | Wheat plant response rating (wheat; [1]) | Wheat plant response rating (wheat; [7]) | Wheat plant response rating (wheat; [4]) | Plant response rating, Wheat (wheat; [6]) | Wild oats plant response rating (wild oat; [1]) | Wild oats plant response rating (wild oat; [7]) | Plant response rating, Wild oats (wild oat; [6]) | Plant response rating, Nutsedge (purple nutsedge; [3]) | Nutsedge plant response rating (purple nutsedge; [7]) | Nutsedge plant response rating (purple nutsedge; [4]) | Nutsedge plant response rating (0 to 10 scale) (purple nutsedge; Preemergence, Rate 250 g/ha) | Nutsedge plant response rating (purple nutsedge; [5])
9: Plant response rating, Bedstraw (bedstraw; [3]) | Blackgrass plant response rating (0 to 10 scale) (blackgrass; Preemergence, Rate 250 g/ha) | Blackgrass plant response rating (blackgrass; [5]) | B. signalgrass plant response rating (surinam grass; [4]) | B. signalgrass plant response rating (0 to 10 scale, 0 is no effect, 10 is complete control) (surinam grass; Preemergence, Rate 250 g/ha) | B. signalgrass plant response rating (surinam grass; [5]) | Plant response rating, Crabgrass (crabgrass; [3]) | Crabgrass plant response rating (crabgrass; [7]) | Crabgrass plant response rating (crabgrass; [4]) | Redroot pigweed plant response rating (pigweed; [4]) | Rape plant response rating (rape; [5]) | Sugarbeets plant response rating (sugar beet; [5]) | Wild oats plant response rating (wild oat; [5])
7: Blackgrass plant response rating (blackgrass; [2]) | Plant response rating, Blackgrass (blackgrass; [3]) | Blackgrass plant response rating (blackgrass; [4]) | Plant response rating, Blackgrass (blackgrass; [6]) | Plant response rating, Redroot pigweed (pigweed; [3]) | Rape plant response rating (rape; [2]) | Plant response rating, Rape (rape; [6]) | Sugarbeets plant response rating (0 to 10 scale) (sugar beet; Preemergence, Rate 250 g/ha)
